In one assay the target is T1, HPK1 (Homo sapiens, UniProt Q92918).
T1 construct: purchased Signal Chem M23-11G-10
T1 sequence (Q92918 1-346 limits assumed): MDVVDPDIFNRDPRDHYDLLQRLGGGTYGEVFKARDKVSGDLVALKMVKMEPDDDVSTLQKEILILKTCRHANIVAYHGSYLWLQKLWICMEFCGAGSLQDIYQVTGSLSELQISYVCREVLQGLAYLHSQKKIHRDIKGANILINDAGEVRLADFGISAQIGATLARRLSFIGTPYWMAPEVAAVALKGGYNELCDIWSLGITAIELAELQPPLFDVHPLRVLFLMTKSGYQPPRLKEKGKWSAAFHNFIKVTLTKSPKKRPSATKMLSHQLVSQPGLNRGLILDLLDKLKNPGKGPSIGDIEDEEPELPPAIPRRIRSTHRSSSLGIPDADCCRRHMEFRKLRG
Description: HPK1 enzyme inhibition assay (ADP-Glo). The conditions noted are these: MBP substrate, ATP. The class given is biochemical. The method, then:
The compound was dissolved in 100% DMSO at the concentration of 10 mM. The HPK1 protein was purchased from Signal Chem (M23-11G-10). 2.5 μL per well of 2×HPK1 protein was added to assay plate containing the test compound, centrifuged at 1500 rpm for 1 minute, and then incubated at 25° C. for 60 minutes. MBP protein was purchased from Signal Chem (M42-51N) and ATP was purchased from Promega (V9102). The two were added 2.5 μL per well mixture of 2×MBP (0.2 ug/ul) and ATP (20 μM), centrifuged at 1500 rpm for 1 minute, then incubated at 25° C. for 60 minutes. Then added 5 μL of ADP-Glo from Promega (V9102) to the assay plate and depleted the unconsumed ATP for 60 minutes. Then centrifuged at 1500 rpm for 1 minute and incubated at 25° C. for 60 minutes. Finally, 10 μL of the kinase assay reagent from Promega (V9102) was added to the assay plate to convert ADP to ATP, centrifuged at 1500 rpm for 1 minute, incubate at 25° C. for 40 minutes. After 40 minutes incubation, the […] was determined. Based on the results, the IC50 value of the compound was calculated.
A general note: In ADP-Glo the light output rises with the ADP produced.

The subject of assay [1] is HPK1 p-SLP-76 in Jurkat cells. In words: HPK1 p-SLP-76 inhibition assay in Jurkat cells (HTRF). The class given is cell-based. The conditions noted are these: Homo sapiens, 4 h compound, anti-CD3 stimulation 20 min. As for the experimental part:
Before compound treatment, Jurkat cells were starved in PRMI-1640 medium supplemented with 0.5% FBS overnight. The cell density was adjusted to 1*10^7 cells/mL in assay medium (RPMI-1640 no phenol red with 0.5% FBS) and 16 uL cell suspension was transferred per well to a 384-well plate (Corning #3765). […] of test compound was prepared in assay medium and 4 uL was added per well to the 384-well plate. The plate was then incubated at 37° C., 5% CO2 for 4 h. Jurkat cells in 384-well plate were stimulated with anti-CD3 (BD Biosciences #555329, final conc. is 10 ug/mL) for 20 min at 37° C., 5% CO2 by adding 4 uL 6× antibody solution per well. Phospho-SLP76 HTRF kit was purchased from Cisbio (63ADK076PEH). 8 uL 4× Lysis Buffer was added to 384-well plate after anti-CD3 stimulation. The plate was centrifuged at 1,000 rpm for 1 min, shaken at 250 rpm for 60 min and centrifuged again at 1,000 rpm for 5 min. Afterwards the cell lysates were transferred to the assay plate (Greiner #784075) with 16 uL per well. 4 uL detection antibody mix per well prepared in Detection Buffer was added to the assay plate, followed by centrifugation at 1,000 rpm for 1 min and incubation at 25° C. overnight. The fluorescence emission at two different wavelengths (665 nm and 620 nm) was read by an HTRF compatible microplate reader and the IC50 value of the compound was calculated.
In general terms: TR-FRET usually uses a lanthanide donor and a delayed reading to cut background.

In general, IC50 refers to the concentration needed to halve the response being measured. As to `COCC(=O)N1CCN(c2cccc(-c3cnc4[nH]cc(C5CC5)c4c3Cl)c2)C(=O)C1` [Example 32, 1-(3-(4-chloro-3-cyclopropyl-1H-pyrrolo[2,3-b]pyridin-5-yl)phenyl)-4-(2-methoxyacetyl) piperazin-2-one], the half-inhibitory concentration (IC50) at HPK1 was at most 10 nM; in assay [1], at most 300 nM.
With `CN(C)CCCS(=O)(=O)N1CCN(c2cccc(-c3cnc4[nH]cc(C5CC5)c4c3Cl)c2)C(=O)C1` [Example 56, 1-(3-(4-chloro-3-cyclopropyl-1H-pyrrolo[2,3-b]pyridin-5-yl)phenyl)-4-((3-(dimethylamino)propyl)sulfonyl)piperazin-2-one], the half-maximal inhibitory concentration (IC50) against HPK1 was at most 10 nM; in assay [1] it was 300 to 3000 nM.
On to `CCc1c[nH]c2ncc(-c3cccc(N4CCN(C(=O)CC[C@H](NC(=O)c5ccc(NCc6cnc7nc(N)[nH]c(=O)c7n6)cc5)C(=O)O)CC4=O)c3)c(Cl)c12` [Example 47, (S)-2-(4-(((2-amino-4-oxo-3,4-dihydropteridin-6-yl)methyl)amino)benzamido)-5-(4-(3-(4-chloro-3-ethyl-1H-pyrrolo[2,3-b]pyridin-5-yl)phenyl)-3-oxopiperazin-1-yl)-5-oxopentanoic acid], for which the IC50 is 10 to 100 nM against HPK1 and over 10000 nM in assay [1].
For `CCc1c[nH]c2ncc(-c3cc(N4CCNCC4=O)ccc3CO)cc12` [Example 21, 1-(3-(3-ethyl-1H-pyrrolo[2,3-b]pyridin-5-yl)-4-(hydroxymethyl)phenyl)piperazin-2-one], the 50% inhibitory concentration (IC50) at HPK1 is over 1000 nM; in assay [1], over 10000 nM.
Consider `CCc1c[nH]c2ncc(-c3cccc(N4CCN(C(=O)CC56CC7CC(CC(C7)C5)C6)CC4=O)c3)c(Cl)c12` [Example 33, 4-(2-((1s,3s)-adamantan-1-yl)acetyl)-1-(3-(4-chloro-3-ethyl-1H-pyrrolo[2,3-b]pyridin-5-yl)phenyl)piperazin-2-one], for which the half-inhibitory concentration (IC50) was in the range of 10 to 100 nM on HPK1 and 3000 to 10000 nM in assay [1].
Regarding `CCc1c[nH]c2ncc(-c3cccc(N4CCN(CCOC)CC4=O)c3)c(Cl)c12` [Example 28, 1-(3-(4-chloro-3-ethyl-1H-pyrrolo[2,3-b]pyridin-5-yl)phenyl)-4-(2-methoxyethyl)piperazin-2-one], the concentration for half-maximal inhibition (IC50) was at most 10 nM on HPK1 and 300 to 3000 nM in assay [1].
The like results for `COCC(=O)N1CCN(c2cccc(-c3cnc4[nH]cc(C#Cc5ncn(C)n5)c4c3Cl)c2)C(=O)C1` [Example 36, 1-(3-(4-chloro-3-((1-methyl-1H-1,2,4-triazol-3-yl)ethynyl)-1H-pyrrolo[2,3-b]pyridin-5-yl)phenyl)-4-(2-methoxyacetyl)piperazin-2-one] were, in that order, 10 to 100 nM and over 10000 nM.
For the compound `CCc1c[nH]c2ncc(-c3cccc(N4CCN(C(=O)CCCNC(=O)CC56CC7CC(CC(C7)C5)C6)CC4=O)c3)c(Cl)c12` [Example 34, 2-((3r,5r,7r)-adamantan-1-yl)-N-(4-(4-(3-(4-chloro-3-ethyl-1H-pyrrolo[2,3-b]pyridin-5-yl)phenyl)-3-oxopiperazin-1-yl)-4-oxobutyl)acetamide], the IC50 against HPK1 lay in the range of 10 to 100 nM; in assay [1], 3000 to 10000 nM.
The like results for `COC(=O)c1c[nH]c2ncc(-c3cccc(N4CCNCC4=O)c3)c(Cl)c12` [Example 2, Methyl 4-chloro-5-(3-(2-oxopiperazin-1-yl)phenyl)-1H-pyrrolo[2,3-b]pyridine-3-carboxylate] were, in that order, 100 to 1000 nM and over 10000 nM.
As for `O=C1CNCCN1c1cncc(-c2cnc3[nH]cc(C4CC4)c3c2Cl)c1` [Example 19, 1-(5-(4-chloro-3-cyclopropyl-1H-pyrrolo[2,3-b]pyridin-5-yl)pyridin-3-yl)piperazin-2-one], the half-maximal inhibitory concentration (IC50) was 100 to 1000 nM against HPK1 and over 10000 nM in assay [1].
Take `CS(=O)(=O)N1CCN(c2cccc(-c3cnc4[nH]cc(CC(F)F)c4c3Cl)c2)C(=O)C1` [Example 51, 1-(3-(4-chloro-3-(2,2-difluoroethyl)-1H-pyrrolo[2,3-b]pyridin-5-yl)phenyl)-4-(methylsulfonyl)piperazin-2-one]: the IC50 against HPK1 was at most 10 nM; in assay [1], 300 to 3000 nM.
As for `COCC(=O)N1CCN(c2cccc(-c3cnc4[nH]cc(CC(F)F)c4c3Cl)c2)C(=O)C1` [Example 38, 1-(3-(4-chloro-3-(2,2-difluoroethyl)-1H-pyrrolo[2,3-b]pyridin-5-yl)phenyl)-4-(2-methoxyacetyl)piperazin-2-one], the half-inhibitory concentration (IC50) was at most 10 nM against HPK1 and 300 to 3000 nM in assay [1].
Turning to `COCCN1CCN(c2cccc(-c3cnc4[nH]cc(C5CC5)c4c3Cl)c2)C(=O)C1` [Example 39, 1-(3-(4-chloro-3-cyclopropyl-1H-pyrrolo[2,3-b]pyridin-5-yl)phenyl)-4-(2-methoxyethyl)piperazin-2-one], the concentration for half-maximal inhibition (IC50) was at most 10 nM against HPK1 and 300 to 3000 nM in assay [1].
The like results for `CCc1c[nH]c2ncc(-c3cccc(N4CCN(C(=O)CNc5ccc(C[C@@H](N)C(=O)O)cc5)CC4=O)c3)c(Cl)c12` [Example 46, (R)-2-amino-3-(4-((2-(4-(3-(4-chloro-3-ethyl-1H-pyrrolo[2,3-b]pyridin-5-yl)phenyl)-3-oxopiperazin-1-yl)-2-oxoethyl)amino)phenyl)propanoic acid] were, in that order, at most 10 nM and 3000 to 10000 nM.
Consider `CCc1c[nH]c2ncc(-c3cccc(N4CCN(C(=O)CN5CCOCC5)CC4=O)c3)c(Cl)c12` [Example 26, 1-(3-(4-chloro-3-ethyl-1H-pyrrolo[2,3-b]pyridin-5-yl)phenyl)-4-(2-morpholinoacetyl)piperazin-2-one], for which the IC50 was at most 10 nM against HPK1 and 300 to 3000 nM in assay [1].
Take `CCc1c[nH]c2ncc(-c3cccc(N4CCNCC4=O)c3)c(Cl)c12` [Example 1, 1-(3-(4-chloro-3-ethyl-1H-pyrrolo[2,3-b]pyridin-5-yl)phenyl)piperazin-2-one]: the IC50 at HPK1 is at most 10 nM; in assay [1] it was 300 to 3000 nM.
Turning to `CS(=O)(=O)N1CCN(c2cccc(-c3cnc4[nH]cc(CC(F)F)c4c3Cl)n2)C(=O)C1` [Example 61, 1-(6-(4-chloro-3-(2,2-difluoroethyl)-1H-pyrrolo[2,3-b]pyridin-5-yl)pyridin-2-yl)-4-(methylsulfonyl)piperazin-2-one], the IC50 against HPK1 was at most 10 nM; in assay [1], 300 to 3000 nM.
As for `O=C1CN(S(=O)(=O)CCCN2CCOCC2)CCN1c1cccc(-c2cnc3[nH]cc(C4CC4)c3c2Cl)c1` [Example 55, 1-(3-(4-chloro-3-cyclopropyl-1H-pyrrolo[2,3-b]pyridin-5-yl)phenyl)-4-((3-morpholinopropyl)sulfonyl)piperazin-2-one], the half-maximal inhibitory concentration (IC50) was at most 10 nM on HPK1 and 300 to 3000 nM in assay [1].
In the same order, the values of `COCCN1CCN(c2cccc(-c3cnc4[nH]cc(CC(F)F)c4c3Cl)c2)C(=O)C1` [Example 37, 1-(3-(4-chloro-3-(2,2-difluoroethyl)-1H-pyrrolo[2,3-b]pyridin-5-yl)phenyl)-4-(2-methoxyethyl)piperazin-2-one] are 10 to 100 nM and 300 to 3000 nM.
As for `COCC(=O)N1CCN(c2cccc(-c3cnc4[nH]cc(C#Cc5ccccn5)c4c3Cl)c2)C(=O)C1` [Example 35, 1-(3-(4-chloro-3-(pyridin-2-ylethynyl)-1H-pyrrolo[2,3-b]pyridin-5-yl)phenyl)-4-(2-methoxyacetyl)piperazin-2-one], the IC50 on HPK1 is 10 to 100 nM; in assay [1], 3000 to 10000 nM.
Turning to `COCCS(=O)(=O)N1CCN(c2cccc(-c3cnc4[nH]cc(C5CC5)c4c3Cl)c2)C(=O)C1` [Example 54, 1-(3-(4-chloro-3-cyclopropyl-1H-pyrrolo[2,3-b]pyridin-5-yl)phenyl)-4-((2-methoxyethyl)sulfonyl)piperazin-2-one], the figures for the IC50 (against HPK1; in assay [1]) were at most 10 nM and 300 to 3000 nM, respectively.
Regarding `O=C1CNCCN1c1cccc(-c2cnc3[nH]cc(CC(F)F)c3c2Cl)n1` [Example 16, 1-(6-(4-chloro-3-(2,2-difluoroethyl)-1H-pyrrolo[2,3-b]pyridin-5-yl)pyridin-2-yl)piperazin-2-one], the half-inhibitory concentration (IC50) was in the range of 10 to 100 nM against HPK1 and 300 to 3000 nM in assay [1].
